Patent US20210236507A1, “METHODS AND PHARMACEUTICAL COMPOSITIONS FOR PREVENTING RELAPSE IN A PERSON WITH AN ADDICTION USING BETA ADRENERGIC RECEPTOR ANTAGONIST AND MUSCARINIC RECEPTOR ANTAGONIST COMBINATIONS” (MAGNOLIA CNS, LLC, priority 2020, published 2021)
Entries after “also recorded” stand apart in the source; their conditions may differ. Where a name gives a salt, the structure may show the parent alone. Each block holds one compound with its values, some of them ahead of it.

What was measured:
humans = experiment: Taste and mouth paresthesia of dose forms noted in humans during development; format: in vivo, human; conditions: sublingual/liquid/solid dose forms
Source text: The pharmaceutical compositions of the present invention, when intended for sublingual, buccal, and/or oral delivery, may benefit from taste-masking with natural and/or artificial flavors and/or sweeteners (e.g., mannitol, sucralose, monosaccharides, and disaccharides). Mouth paresthesia (numbness) can occur with propranolol HCl as a perceived adverse effect.
Alternative beta blockers may be chosen that lack these undesirable properties, such as atenolol.
Tablets are formed by compression of the powder using a mechanical tablet press. For instance tablets without coatings are prepared with composition #11 at about 70 mg each, for use as sublingual or oral dose forms. At this size of tablet an adult dose would deliver 20 mg propranolol HC and 0.5 mg scopolamine HBr. Alternatively, tablets may be produced using a triturate tablet mold (e.g., from the vendor PCCA), wherein the triturated powder is moistened with 95% ethanol and then the wells are filled with the moistened composition, extruded from the wells, and dried. The intra-oral mucosal (e.g., sublingual) tablets dissolve rapidly under the tongue, for instance in less than one minute (e.g., solid dose forms #13 and 14). […] Sublingual (or buccal) tablets may be preferred for rapid disintegration, dissolution, absorption and increased bioavailability via the mucosal route. A sublingual tablet of #23 weighing ca. 82 mg delivers a dose of ca. 25 mg atenolol and ca. 0.25 mg of scopolamine HBr. Tablets may also be ingested orally, although it is rational to presume that absorption will be somewhat delayed and bioavailability will be somewhat reduced with many APIs, relative to the mucosal route.

[1] = biological target: muscarinic acetylcholine receptors (all five human receptor subtypes); conditions: cited from earlier work

mouth/tongue paresthesia (humans; HCl): delayed paresthesia of the tongue
taste (humans; HCl): “acidic” and “medicine” taste
mouth/tongue paresthesia (humans; listed as propranolol HCl, HCl): produces mouth paresthesia
taste (humans; listed as propranolol HCl, HCl): “acidic” and “medicine” taste
mouth/tongue paresthesia (humans; listed as propranolol, HCl): Paresthesia
taste (humans; listed as propranolol, HCl): undesirable taste
Compound: CC(C)NCC(O)COc1cccc2ccccc12 (stereo not drawn) [Propranolol HCl]

Compound: CN1[C@@H]2C[C@@H](OC(=O)[C@H](CO)c3ccccc3)C[C@H]1[C@@H]1O[C@@H]12 [Scopolamine]
Ki [1]: 0.34 to 53 nM

Compound: CC(C)NCC(O)COc1ccc(CC(N)=O)cc1 (stereo not drawn) [atenolol]
mouth/tongue paresthesia (humans): neither property was observed; also recorded: lacked these undesirable characteristics
taste (humans): neither property was observed; also recorded: lacked these undesirable characteristics
